# Reference: the supplement of paper PMC10307832
# Legend:
# Test in all cases: relative viability (nuclei count vs DMSO), 5 days (fraction); higher = more cells survive
# [1] = compound: C=CC(=O)N1CCC[C@@H](n2nc(-c3ccc(Oc4ccccc4)cc3)c3c(N)ncnc32)C1 [Ibrutinib] + Cc1cc(Nc2cc(N3CCN(C)CC3)nc(Sc3ccc(NC(=O)C4CC4)cc3)n2)n[nH]1 [Tozasertib] (partner 0.1 µM)
# Method in brief: (§1)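 Relative viability was taken as the ratio of nuclei in treated wells to nuclei in vehicle wells. Lung cancer cell lines in 1536-well plates received compounds by pin tool one day after seeding, either one drug alone or a fixed anchor-drug dose plus five library-drug doses (not always all listed) in √10 steps. Nuclei were counted on 4× images after 5 days of treatment, and values are medians of duplicate plates.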
# [2] = compound: C=CC(=O)Nc1cc(-n2c(=O)ccc3cnc4ccc(-c5ccc(NS(C)(=O)=O)cc5)cc4c32)ccc1C [BMX-IN-1] + CC(=O)Nc1cccc(-n2c(=O)n(C3CC3)c(=O)c3c(Nc4ccc(I)cc4F)n(C)c(=O)c(C)c32)c1 [Trametinib] (partner 0.02 µM)
# Method in brief: as §1
# [3] = compound: C=CC(=O)Nc1cc(-n2c(=O)ccc3cnc4ccc(-c5ccc(NS(C)(=O)=O)cc5)cc4c32)ccc1C [BMX-IN-1] + Nc1nc2[nH]cc(CCc3ccc(C(=O)N[C@@H](CCC(=O)O)C(=O)O)cc3)c2c(=O)[nH]1 [Pemetrexed] (partner 0.2 µM)
# Method in brief: as §1
# [4] = compound: C=CCc1cccc(/C=N/NC(=O)CN2CCN(Cc3ccccc3)CC2)c1O [PAC-1] + Cc1nc(Nc2ncc(C(=O)Nc3c(C)cccc3Cl)s2)cc(N2CCN(CCO)CC2)n1 [Dasatinib] (partner 0.075 µM)
# Method in brief: as §1
Cell Line,relative viability ([1]; first compound 0.005 µM),relative viability ([1]; first compound 0.01581 µM),relative viability ([1]; first compound 0.05 µM),relative viability ([1]; first compound 0.1581 µM),relative viability ([1]; first compound 0.5 µM),relative viability ([2]; first compound 0.02 µM),relative viability ([2]; first compound 0.2 µM),relative viability ([2]; first compound 0.6325 µM),relative viability ([2]; first compound 2 µM),relative viability ([3]; first compound 0.02 µM),relative viability ([3]; first compound 0.2 µM),relative viability ([3]; first compound 0.6325 µM),relative viability ([3]; first compound 2 µM),relative viability ([4]; first compound 0.02 µM),relative viability ([4]; first compound 0.06325 µM),relative viability ([4]; first compound 0.2 µM),relative viability ([4]; first compound 2 µM)
LC-2-ad,0.497,0.413,0.388,0.449,0.382,1.02,0.945,0.929,0.94,0.265,0.28,0.277,0.281,0.552,0.629,0.603,0.489
LCLC-97TM1,0.601,0.426,0.216,0.241,0.224,0.213,0.27,0.204,0.176,0.142,0.191,0.195,0.2,0.692,0.848,0.748,0.911
LCLC-103H,0.493,0.495,0.531,0.527,0.439,0.753,0.758,0.736,0.683,0.444,0.546,0.467,0.418,0.485,0.472,0.409,0.487
LK-2,–,0.165,0.185,0.168,0.157,0.943,1.02,0.793,0.847,0.163,0.256,0.254,0.225,0.259,0.332,0.241,0.31
LOU-NH91,0.699,0.582,0.581,0.648,0.488,–,0.814,0.849,0.784,–,0.406,0.392,0.366,0.505,0.551,0.541,0.599
LU99A,0.264,0.279,0.285,0.258,0.278,0.515,0.548,0.548,0.572,0.198,0.226,0.183,0.141,0.549,0.579,0.498,0.505
LXF-289,0.22,0.192,0.164,0.248,0.197,0.722,0.704,0.761,0.752,0.896,0.947,1.01,0.985,0.228,0.226,0.192,0.223
NCI-H23,0.34,0.361,0.455,0.335,0.382,0.38,0.423,0.318,0.361,0.693,1.04,0.797,0.622,0.734,0.887,0.826,0.948
NCI-H322M,0.426,0.459,0.415,0.474,0.354,0.501,0.504,0.532,0.443,0.596,0.689,0.65,0.586,0.226,0.264,0.259,0.256
NCI-H358,0.103,–,0.0879,0.12,0.0917,0.119,0.124,0.127,0.123,0.167,0.182,0.176,0.175,0.179,0.164,0.158,0.135
